Literature values as cited in patent US20010056087A1, “Use of 5alpha-androst-1en-3,17-diol to increase the level of the anabolic/androgenic hormone 17beta-hydroxy-5alpha-androst-1-en-3-one in humans” (priority 2000, published 2001).

Conditions: One hundred mg given orally to men

## C[C@]12C=CC(=O)C[C@@H]1CC[C@@H]1[C@@H]2CC[C@]2(C)C(=O)CC[C@@H]12 [1-androstenedione, 5alpha-androst-1-en-3,17-dione]
  excretion of 17beta-hydroxy-5alpha-androst-1-en-3-one in the urine (in-vivo conversion): considerable excretion of 17beta-hydroxy-5alpha-androst-1-en-3-one in the urine
